The source of these data is patent US12545674B2, “Crystal of trifluoromethyl/chloro disubstituted sulfonamide selective BCL-2 inhibitor” (priority 2020, dated 2026).

Data set [1] in a line: Stability test of crystalline forms (high temperature, high humidity, irradiation; HPLC purity and crystal form). It is filed as physicochemical. Here is the method:
Test samples were put into an open and proper clean container, and left to stand at 60° C. for 10 days. Samples were collected on day 5 and day 10;
Test samples were put into a closed humid container, and left to stand at 92.5%±5% RH/25° C. for 10 days. Samples were collected on day 5 and day 10;
Test samples were put into a lighting box or other suitable lighting devices (open) with fluorescent lamps at 4500 1×±500 1× for 10 days. Samples were collected on day 5 and day 10.
In the three conditions, the purity of the product and the contents of related substances were detected after the test samples were placed in the experimental conditions. • Instrument: Thermo U3000 high-performance liquid chromatography; • Detector: thermo VWD-3100 UV absorption detector/DAD-3000 diode array detector; • Chromatographic column: XSelect CSH C18 (4.6×150 mm, 3.5 μm); • Injection volume: 10 μL; detection wavelength: 280 nm; flow rate: 1.0 mL/min; column temperature: 30° C.; • Mobile phase: phase A: 0.1% of aqueous formic acid solution, phase B: acetonitrile, gradient elution; • Preparation of sample solution: An appropriate amount of the product was precisely, and dissolved in methanol. The solution was quantitatively diluted to obtain a solution containing about 0.5 mg per 1 mL as a test solution.

Data set [2] can be described thus: Hygroscopicity test (Chinese Pharmacopoeia General Chapter 9103). The class given is physicochemical. The conditions noted are these: 25° C.±1° C., relative humidity 80%±2%, 24 h. An excerpt: For the method and conditions of the hygroscopicity test, please refer to the “Guidelines for the Hygroscopicity Test of Drugs” (General Chapter 9103, Chinese Pharmacopoeia, Volume IV, 2015 Edition). Hygroscopicity refers to the capability or degree of a substance for absorbing water in certain temperature and humidity conditions. The test samples were solid drug substances meeting the specifications, and the test results may be used as a reference for selection of suitable drug packaging and storage conditions. • (1) A dried glass weighing bottle with a plug (outer diameter: 50 mm; height: 15 mm) was taken and placed in a suitable thermostatic dryer (with saturated ammonium chloride or ammonium sulfate solution placed in the lower part) at 25° C.±1° C. or an artificial climate box (with a set temperature at 25° C.±1° C. and relative humidity at 80%±2%) on the day before the test, and the weight (m1) was precisely measured. • (2) An appropriate amount of test sample was taken and spread in the above weighing bottle, with the thickness of the test sample being about 1 mm in general, and the weight (m2) was precisely measured. • (3) The weighing bottle was opened and placed in the above conditions at constant temperature and humidity for 24 h together with the cap. • (4) The weighing bottle was capped, and the weight (m3) was precisely measured.

Where [3] appears, read: High humidity 92.5 ± 5% RH/25° C., Day 0.
Setting [4] is: High humidity 92.5 ± 5% RH/25° C., Day 5.
Setting [5] is: High humidity 92.5 ± 5% RH/25° C., Day 10.
Where [6] appears, read: High temperature 60° C., open container, Day 0.
The mark [7] stands for this setting: High temperature 60° C., open container, Day 5.
Where [8] appears, read: High temperature 60° C., open container, Day 10.
Setting [9] is: Irradiation 4500 ± 500 lx, Day 0.
Where [10] appears, read: Irradiation 4500 ± 500 lx, Day 5.
Where [11] appears, read: Irradiation 4500 ± 500 lx, Day 10.

Regarding `CC1(C)CCC(CN2CCN(c3ccc(C(=O)NS(=O)(=O)c4ccc(NC[C@H]5COCCO5)c([N+](=O)[O-])c4)c(Oc4cnc5[nH]ccc5c4)c3)CC2)=C(c2ccc(C(F)(F)F)cc2Cl)C1` [Amorphous form], the Crystalline form result in data set [1] (setting [3]) is reported as “Amorphous”; in data set [1] (setting [4]), “Amorphous”; in data set [1] (setting [5]), “Amorphous”; in data set [1] (High temperature 60° C., Day 0) it was “Amorphous”; in data set [1] (High temperature 60° C., Day 5) it was “Amorphous”; in data set [1] (High temperature 60° C., Day 10), “Amorphous”. Further, the Crystalline form result in data set [1] (setting [9]), in data set [1] (setting [10]) and in data set [1] (setting [11]) was “Amorphous” in each case. The Purity came out at 97.91% in data set [1] (setting [3]); 97.85% in data set [1] (setting [4]); 97.89% in data set [1] (setting [5]); 97.91% in data set [1] (setting [6]); 97.51% in data set [1] (setting [7]); 97.33% in data set [1] (setting [8]). Further, the results for the Purity in data set [1] (setting [9]), in data set [1] (setting [10]) and in data set [1] (setting [11]) were 97.91%, 95.96% and 93.83%, respectively.
For `CC1(C)CCC(CN2CCN(c3ccc(C(=O)NS(=O)(=O)c4ccc(NC[C@H]5COCCO5)c([N+](=O)[O-])c4)c(Oc4cnc5[nH]ccc5c4)c3)CC2)=C(c2ccc(C(F)(F)F)cc2Cl)C1` [Crystalline form A], in data set [2], the Hygroscopic weight gain is given as 1.38 wt %. For the same compound, the Purity is given as 97.92% in data set [1] (setting [3]); 97.84% in data set [1] (setting [4]); 97.91% in data set [1] (setting [5]); 97.92% in data set [1] (setting [6]); 97.41% in data set [1] (setting [7]); 97.17% in data set [1] (setting [8]). Also, the figures for the Purity in data set [1] (setting [9]), in data set [1] (setting [10]) and in data set [1] (setting [11]) were 97.92%, 97.07% and 96.62%, respectively.
In data set [2], `CC1(C)CCC(CN2CCN(c3ccc(C(=O)NS(=O)(=O)c4ccc(NC[C@H]5COCCO5)c([N+](=O)[O-])c4)c(Oc4cnc5[nH]ccc5c4)c3)CC2)=C(c2ccc(C(F)(F)F)cc2Cl)C1` [Crystalline form B] displayed a Hygroscopic weight gain of 0.30 wt %. Moreover, the Purity is given as 98.44% in data set [1] (setting [3]); 98.45% in data set [1] (setting [4]); 98.36% in data set [1] (setting [5]); 98.44% in data set [1] (setting [6]); 98.34% in data set [1] (setting [7]); 98.22% in data set [1] (setting [8]). Besides, the Purity in data set [1] (setting [9]) is 98.44%; in data set [1] (setting [10]), 98.22%; in data set [1] (setting [11]), 97.68%.
`CC1(C)CCC(CN2CCN(c3ccc(C(=O)NS(=O)(=O)c4ccc(NC[C@H]5COCCO5)c([N+](=O)[O-])c4)c(Oc4cnc5[nH]ccc5c4)c3)CC2)=C(c2ccc(C(F)(F)F)cc2Cl)C1` [Crystalline form C] had a Hygroscopic weight gain in data set [2] of 0.11 wt %. Also, the Purity is 98.56% in data set [1] (setting [3]); 98.70% in data set [1] (setting [4]); 98.64% in data set [1] (setting [5]); 98.56% in data set [1] (setting [6]); 98.25% in data set [1] (setting [7]); 97.31% in data set [1] (setting [8]). Further, the Purity worked out at 98.56% in data set [1] (setting [9]), 98.45% in data set [1] (setting [10]) and 98.15% in data set [1] (setting [11]).
`CC1(C)CCC(CN2CCN(c3ccc(C(=O)NS(=O)(=O)c4ccc(NC[C@H]5COCCO5)c([N+](=O)[O-])c4)c(Oc4cnc5[nH]ccc5c4)c3)CC2)=C(c2ccc(C(F)(F)F)cc2Cl)C1` [Crystalline form D] returned a Hygroscopic weight gain in data set [2] of 0.75 wt %.
Consider `CC1(C)CCC(CN2CCN(c3ccc(C(=O)NS(=O)(=O)c4ccc(NC[C@H]5COCCO5)c([N+](=O)[O-])c4)c(Oc4cnc5[nH]ccc5c4)c3)CC2)=C(c2ccc(C(F)(F)F)cc2Cl)C1` [Crystalline form E], for which the Hygroscopic weight gain in data set [2] is given as 0.11 wt %. Also, the Purity is listed as 98.02% in data set [1] (setting [3]); 97.89% in data set [1] (setting [5]); 98.02% in data set [1] (setting [6]); 97.88% in data set [1] (setting [8]); 98.02% in data set [1] (setting [9]); 97.71% in data set [1] (setting [11]).
On to `CC1(C)CCC(CN2CCN(c3ccc(C(=O)NS(=O)(=O)c4ccc(NC[C@H]5COCCO5)c([N+](=O)[O-])c4)c(Oc4cnc5[nH]ccc5c4)c3)CC2)=C(c2ccc(C(F)(F)F)cc2Cl)C1` [Crystalline form F], for which, in data set [2], the Hygroscopic weight gain amounted to 0.76 wt %.
Still for that read-out and setting: next, `CC1(C)CCC(CN2CCN(c3ccc(C(=O)NS(=O)(=O)c4ccc(NC[C@H]5COCCO5)c([N+](=O)[O-])c4)c(Oc4cnc5[nH]ccc5c4)c3)CC2)=C(c2ccc(C(F)(F)F)cc2Cl)C1` [Crystalline form H]: 0.25 wt %.
